The source of these data is ChEMBL document CHEMBL1154930, “N1-Heterocyclic pyrimidinediones as non-nucleoside inhibitors of HIV-1 reverse transcriptase” (Bioorg Med Chem Lett, 2010).

Data set [1] concerns Human immunodeficiency virus 1. Put plainly: Antiviral activity against wild type HIV1 infected in human MT2 cells. The class given is functional, organism-based. Conditions: Human immunodeficiency virus 1, MT2.
Data set [2] deals with Human immunodeficiency virus 1. As to the kind of experiment: Antiviral activity against HIV1 harboring reverse transcriptase Y181C mutant infected in human MT2 cells. Conditions: Human immunodeficiency virus 1, MT2. The class given is functional, organism-based.
Data set [3] has as its system Human immunodeficiency virus 1. As to the kind of experiment: Antiviral activity against NNRTI-resistant HIV1 harboring reverse transcriptase K103N mutant infected in human MT2 cells. It counts as functional, organism-based. The following applies: Human immunodeficiency virus 1, MT2.
A further data set addresses Albumin (Homo sapiens, UniProt P02768). Put plainly: Binding affinity to human serum albumin. Conditions: read-out: PB (converted). It counts as ADME.
Data set [4] is described as follows: Half life in human microsomes. It counts as ADME, Microsome.
A short description of data set [5]: Half life in Beagle dog at 0.5 mg/kg, iv or 0.5 mg/kg, po. Conditions: in vivo. It counts as ADME, organism-based, Canis lupus familiaris.
Data set [6] can be described thus: Volume of distribution at steady state in Beagle dog at 0.5 mg/kg, iv or 0.5 mg/kg, po. The class given is ADME, organism-based, Canis lupus familiaris. Conditions: in vivo, read-out: Vdss.
The nature of data set [7]: Oral bioavailability in Beagle dog at 4 mg/kg, po. It counts as ADME, organism-based, Canis lupus familiaris. Conditions: in vivo.
Data set [8] is described as follows: Half life in dog microsomes. The class given is ADME, Canis lupus familiaris, Microsome.
Data set [9] is described as follows: Oral bioavailability in Beagle dog at 0.5 mg/kg, po. It counts as ADME, organism-based, Canis lupus familiaris. Conditions: in vivo.
The nature of data set [10]: Oral bioavailability in Beagle dog at 2 mg/kg, po. It counts as ADME, organism-based, Canis lupus familiaris. The following applies: in vivo.

Chain of Albumin (P02768 whole entry): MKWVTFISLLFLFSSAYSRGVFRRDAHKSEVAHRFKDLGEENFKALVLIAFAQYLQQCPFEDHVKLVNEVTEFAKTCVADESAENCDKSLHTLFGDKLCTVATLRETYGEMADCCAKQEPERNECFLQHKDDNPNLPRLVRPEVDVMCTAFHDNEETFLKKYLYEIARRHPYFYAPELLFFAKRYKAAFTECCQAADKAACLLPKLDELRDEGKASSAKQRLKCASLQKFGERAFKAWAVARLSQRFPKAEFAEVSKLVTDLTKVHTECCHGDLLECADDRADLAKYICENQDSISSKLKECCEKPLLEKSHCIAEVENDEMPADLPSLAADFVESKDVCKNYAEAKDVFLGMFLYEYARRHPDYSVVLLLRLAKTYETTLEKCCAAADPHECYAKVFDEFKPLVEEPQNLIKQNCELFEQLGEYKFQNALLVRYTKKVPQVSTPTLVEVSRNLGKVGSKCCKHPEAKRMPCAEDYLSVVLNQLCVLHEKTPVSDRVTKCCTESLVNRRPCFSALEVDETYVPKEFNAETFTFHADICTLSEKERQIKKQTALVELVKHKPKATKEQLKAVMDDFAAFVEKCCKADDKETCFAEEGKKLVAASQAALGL

Take `Cc1cc(C#N)cc(C(=O)c2c(C(C)C)c(=O)[nH]c(=O)n2Cc2cc(N)nc(F)c2)c1`: the EC50 (in general, the concentration at which the effect is half-maximal) in data set [1] is 3.4 nM; in data set [2] it was 6.7 nM; in data set [3], 1.6 nM. Further, the fraction unbound at Albumin is 0.064. Further, the half-life (usually the time needed for the level to fall by half in the phase considered) in [4] was 45 min; in data set [5] it was 198 min. Also, the Vd in data set [6] was 1.8 L/kg. Also, the bioavailability (commonly dose-corrected exposure relative to a reference, in per cent) in data set [7] stood at 96%.

For `Cc1cc(C#N)cc(C(=O)c2c(C(C)C)c(=O)[nH]c(=O)n2Cc2cc(N)nc(F)c2F)c1`, the concentration for a half-maximal effect (EC50) in data set [1] was determined as 4.5 nM; in [2], 8.2 nM; in data set [3], 7.3 nM. Also, the fraction unbound at Albumin is 0.067. In addition, the half-life in data set [4] came out at 51 min.

Turning to `Cc1cc(C#N)cc(C(=O)c2c(C(C)C)c(=O)[nH]c(=O)n2Cc2cc(F)nc(F)c2)c1`, the values for the concentration giving a half-maximal response (EC50) in data set [1], in [2] and in [3] were 12.4 nM, 12 nM and 1.9 nM, respectively. For the same compound, the fraction unbound at Albumin was 0.058. The t1/2 result in [4] and in data set [8] was “Stable” throughout. The half-life in data set [5] was 294 min. Also, the Vd in [6] was 1.94 L/kg. This compound also displayed a bioavailability in data set [9] of 41.5%.

As for `Cc1cc(C#N)cc(C(=O)c2c(C(C)C)c(=O)[nH]c(=O)n2Cc2ccnc(F)c2)c1`, the EC50 in [1] was determined as 6.2 nM; in data set [2], 16 nM; in [3], 2.4 nM. Besides, the fraction unbound at Albumin was 0.123. Moreover, the half-life is 281 min in data set [4] and 282 min in [5]. In addition, the Vd in [6] is 1.61 L/kg. The bioavailability in [10] amounted to 80%.

For `O=C1Nc2ccc(Cl)cc2[C@@](C#CC2CC2)(C(F)(F)F)O1` [EFAVIRENZ], the half-maximal effective concentration (EC50) in data set [2] is 2.6 nM; in data set [3] it was 35 nM. The half-life in data set [4] is 98 min.

As for `Cc1cc(C#N)cc(C)c1Oc1nc(Nc2ccc(C#N)cc2)nc(N)c1Br` [ETRAVIRINE], the EC50 in data set [1] is 1.6 nM; in [2] it was 2.6 nM; in [3] it was 0.9 nM. In data set [4], this compound came in with a half-life of 140 min.
